# In US10772327B2, “Herbicide composition containing isopropylamine caprylate” (HUNAN AGRICULTURAL BIOTECHNOLOGY RESEARCH INSTITUTE, priority 2018, dated 2020):
# Experiments:
# Test in all cases: Indoor test for herbicidal activity, stem and leaf spray on potted weeds
# Conditions in all cases: Day 7, fresh weight of above-ground portion
# Echinochloa crusgalli = tested on: Echinochloa crusgalli
# Ludwigia prostrata = tested on: Ludwigia prostrata
# Stellaria media = assay type: in vivo
# Conyza candesis = assay type: in vivo
# Cardamine hirsuta = assay type: in vivo
# Eleocharis yokoscensis = assay type: in vivo
# Veronica persica = assay type: in vivo
# Myosoton aquaticum = assay type: in vivo
# Poa annua = assay type: in vivo
# Xanthium sibiricum = assay type: in vivo
# Beckmannia syzigachne = assay type: in vivo
# [1] = listed as glyphosate isopropylamine
# [2] = listed as glyphosate isopropylamine salt
# [3] = listed as isopropylamine caprylate
smiles,measurement,setting,value
CCCCCCCC(=O)O [Caprylic acid],ED50 (95% confidence interval of ED50),Echinochloa crusgalli,14.07 (13.66-14.48) mg/mL
same,ED90 (95% confidence interval of ED90),Echinochloa crusgalli,108.65 (92.83-124.80) mg/mL
same,ED50 (95% confidence interval of ED50),Echinochloa crusgalli; listed as caprylic acid,14.07 mg/mL
same,ED50 (95% confidence interval of ED50),Ludwigia prostrata,12.52 (10.66-14.43) mg/mL
same,ED90 (95% confidence interval of ED90),Ludwigia prostrata,96.04 (85.15-108.33) mg/mL
same,ED50 (95% confidence interval of ED50),Ludwigia prostrata; listed as caprylic acid,12.52 mg/mL
CC(C)N.O=C(O)CNCP(=O)(O)O [Glyphosate isopropylamine],ED50 (95% confidence interval of ED50),Echinochloa crusgalli,52.18 (40.13-65.02) mg/mL
same,ED90 (95% confidence interval of ED90),Echinochloa crusgalli,384.59 (360.35-420.77) mg/mL
same,ED50 (95% confidence interval of ED50),Echinochloa crusgalli; [1],52.18 mg/mL
same,ED50 (95% confidence interval of ED50),Echinochloa crusgalli; [2],52.18 mg/mL
same,ED50 (95% confidence interval of ED50),Ludwigia prostrata,46.79 (41.87-52.27) mg/mL
same,ED90 (95% confidence interval of ED90),Ludwigia prostrata,321.75 (271.72-380.99) mg/mL
same,ED50 (95% confidence interval of ED50),Ludwigia prostrata; [1],46.79 mg/mL
same,ED50 (95% confidence interval of ED50),Ludwigia prostrata; [2],46.79 mg/mL
"CCCCCCCC(=O)O [Isopropylamine caprylate, isopropylamine caprylate]",ED50 (95% confidence interval of ED50),Echinochloa crusgalli,4.07 (2.66-10.48) mg/mL
same,ED90 (95% confidence interval of ED90),Echinochloa crusgalli,28.65 (22.83-40.82) mg/mL
same,ED50 (95% confidence interval of ED50),Echinochloa crusgalli; [3],4.07 mg/mL
same,ED50 (95% confidence interval of ED50),Stellaria media,0.80 (0.47-1.77) mg/mL
same,ED90 (95% confidence interval of ED90),Stellaria media,16.69 (7.91-26.98) mg/mL
same,ED50 (95% confidence interval of ED50),Conyza candesis,0.74 (0.25-1.05) mg/mL
same,ED90 (95% confidence interval of ED90),Conyza candesis,15.54 (8.74-20.93) mg/mL
same,ED50 (95% confidence interval of ED50),Cardamine hirsuta,0.90 (0.11-2.46) mg/mL
same,ED90 (95% confidence interval of ED90),Cardamine hirsuta,18.36 (10.74-35.88) mg/mL
same,ED50 (95% confidence interval of ED50),Eleocharis yokoscensis,3.23 (2.00-9.55) mg/mL
same,ED90 (95% confidence interval of ED90),Eleocharis yokoscensis,24.11 (18.74-40.82) mg/mL
same,ED50 (95% confidence interval of ED50),Veronica persica,0.78 (0.28-2.35) mg/mL
same,ED90 (95% confidence interval of ED90),Veronica persica,9.16 (5.09-22.65) mg/mL
same,ED50 (95% confidence interval of ED50),Myosoton aquaticum,0.18 (0.04-0.25) mg/mL
same,ED90 (95% confidence interval of ED90),Myosoton aquaticum,16.47 (8.35-20.23) mg/mL
same,ED50 (95% confidence interval of ED50),Poa annua,3.07 (2.66-10.48) mg/mL
same,ED90 (95% confidence interval of ED90),Poa annua,28.65 (22.83-40.82) mg/mL
same,ED50 (95% confidence interval of ED50),Xanthium sibiricum,0.64 (0.22-1.03) mg/mL
same,ED90 (95% confidence interval of ED90),Xanthium sibiricum,19.11 (10.80-31.14) mg/mL
same,ED50 (95% confidence interval of ED50),Beckmannia syzigachne,3.07 (1.66-8.48) mg/mL
same,ED90 (95% confidence interval of ED90),Beckmannia syzigachne,30.65 (24.12-44.50) mg/mL
same,ED50 (95% confidence interval of ED50),Ludwigia prostrata,0.52 (0.35-0.61) mg/mL
same,ED90 (95% confidence interval of ED90),Ludwigia prostrata,13.21 (9.17-18.31) mg/mL
same,ED50 (95% confidence interval of ED50),Ludwigia prostrata; [3],0.52 mg/mL
